Entries after “also recorded” stand apart in the source; their conditions may differ. Ends that are not written are not given here.
These substances were tested against T1, MHC II molecules present on dendritic cells (DC) (Homo sapiens, UniProt P01903+P01911, A100K/A102G/A103R/F55Y/I96L/K41T/P40S/Q125H/Q178H/Q39Y/R42S/S66N/T106N/T262R/W38E/Y61H) (assay: In vivo presentation experiment, DR3tg mice). Conditions: 100 μg peptide s.c., CD11c+ cells harvested after 2 hours, co-culture 48 hours.
T1 construct: from tissue; host or cells: CD11c+ dendritic cells from spleens of DR3tg mice (genomic HLA-DRA and DRB1*0301 transgenes, no mouse MHC class II)
Source text: FIG. 14: In vivo presentation protocol. Mice are immunized with peptide/CFA and a T cell line is established. For this, ten days after immunization the LN and spleens are harvested and cultured with different concentrations of peptide; 2×10^6 cells/ml APC+1×10^6 cells/ml CD4^+ cells per well. At day 7 the cells are re-stimulated with fresh APC and the same concentrations of peptide. After 14 to 21 days, CD4^+ cells are isolated from these cultures by magnetic bead isolation. These CD4^+ cells are co-cultured with CD11c^+ (dendritic) cells isolated by magnetic bead isolation from spleens of mice s.c. injected with peptide 2 hours before. Control mice receive a s.c. injection of PBS. After 48 hours, supernatant is collected and cytokine response (IFN-γ) is measured. LN, lymph nodes; APC, Antigen presenting cell; s.c. subcutaneous.
FIG. 15: In vivo presentation of HIP-115 nested peptides in DR3 mice. DR3 mice were immunized with HIP-115/CFA and a T cell line was established. For this, ten days after immunization the LN and spleens were harvested and cultured with different concentrations of peptide (0.1-1-2.5 and 5 μg/ml); 2×10^6 cells/ml APC+1×10^6 cells/ml CD4^+ cells per well. At day 7 the cells were re-stimulated with fresh APC and the same concentrations of peptide. After 14 days, CD4^+ cells were isolated from these cultures by magnetic bead isolation. These CD4^+ cells were co-cultured with CD11c (dendritic) cells isolated by magnetic bead isolation from spleens of DR3 mice s.c. injected with peptides HIP-115NE3, HIP-115NE3-KKK or PBS 2 hours before. After 48 hours, supernatant was collected and IFN-γ production was measured by ELISA. Data are presented as the mean IFN-γ concentration±SEM (One-way ANOVA with Dunn's multiple comparison, * p<0.05, ** p<0.01). LN, lymph nodes; APC, Antigen presenting cell; s.c. subcutaneous.
FIG. 16: In vivo presentation of HIP-24 nested peptides in DR3 mice. DR3 mice were immunized with HIP-241125+HIP-24DG/CFA and a T cell line was established. For this, ten days after immunization the LN and spleens were harvested and cultured with different concentrations of peptide (0.3-1.2-3 and 6 μg/ml); 2×10^6 cells/ml APC+1×10^6 cells/ml CD4^+ cells per well. At day 7 the cells were re-stimulated with fresh APC and the same concentrations of peptide. After 14 days, CD4^+ cells were isolated from these cultures by magnetic bead isolation. […] After 48 hours, supernatant was collected and IFN-γ production was measured by ELISA. […]
FIG. 18: In vivo presentation of HIP-17GN nested peptides in DR3 mice. […] After 48 hours, supernatant was collected and IFN-γ production was measured by ELISA. […]

T1 sequence (P01903 26-254): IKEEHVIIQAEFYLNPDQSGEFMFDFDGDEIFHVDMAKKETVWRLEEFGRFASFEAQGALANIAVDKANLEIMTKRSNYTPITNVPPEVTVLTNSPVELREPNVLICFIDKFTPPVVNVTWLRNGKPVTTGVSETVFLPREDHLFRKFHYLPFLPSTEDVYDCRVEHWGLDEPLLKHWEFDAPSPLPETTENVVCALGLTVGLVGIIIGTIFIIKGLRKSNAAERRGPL
T1 sequence (P01911 30-266 with the stated changes): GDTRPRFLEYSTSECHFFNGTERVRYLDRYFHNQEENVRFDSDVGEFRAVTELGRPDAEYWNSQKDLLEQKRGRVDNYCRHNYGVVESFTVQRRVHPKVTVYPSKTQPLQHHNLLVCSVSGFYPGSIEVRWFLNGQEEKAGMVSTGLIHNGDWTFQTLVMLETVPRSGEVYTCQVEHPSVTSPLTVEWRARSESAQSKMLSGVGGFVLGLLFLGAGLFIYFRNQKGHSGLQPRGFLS

Substance	picked up and presented by MHC II on dendritic cells to peptide-specific T cells (IFN-γ production)
LPLLANNRERRGIA-NH2 [HIP-24HM3, LPLLANNRERRGIA]	presented by DC to T cells
KKKVIFKKISRDKSVTIYLGKKK-NH2 [HIP-115NE3-KKK]	bound to the MHC II on DC in situ and presented to peptide-specific T cells
KKKLTFRRDLYFSRVQVYKKK-NH2 [HIP-17J-KKK]	presented by DC to T cells; also recorded: A certain degree of activation
VIFKKISRDKSVTIYLG-NH2 [HIP-115NE3, VIFKKISRDKSVTIYLG]	not able to cause this activation
